The record followed here is patent publication US7470715B2, “Estrogen modulators” (Pfizer Inc., priority 2005, dated 2008).

Data set [1] has as its target T1, ligand binding domain of the estrogen receptor alpha chain (ERαLBD) (Homo sapiens, UniProt P03372).
T1 construct: expressed in transfected cells; host or cells: Huh-7 human hepatoma cells, transient transfection with FuGENE 6
T1 sequence (P03372 311-547 limits assumed): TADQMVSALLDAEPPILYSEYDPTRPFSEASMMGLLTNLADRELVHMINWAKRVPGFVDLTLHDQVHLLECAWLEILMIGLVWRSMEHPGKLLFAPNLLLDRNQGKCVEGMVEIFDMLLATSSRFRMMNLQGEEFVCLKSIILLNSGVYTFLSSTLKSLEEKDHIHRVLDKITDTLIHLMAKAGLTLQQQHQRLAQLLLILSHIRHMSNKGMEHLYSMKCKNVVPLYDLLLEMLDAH
The experiment in a line: ER agonist cell assay (ERα), Huh-7 co-transfection, luciferase. To be noted: for EC50: Huh-7 cells co-transfected with pG5luc and ERαLBD, overnight incubation, luciferase; for ERα % of Max E2 Response: percent of the maximum estradiol fold change, Huh-7, pG5luc and ERαLBD. The class given is cell-based.

The target of data set [2] is ligand binding domain of the estrogen receptor beta chain (ERβLBD) that contained a point mutation at amino acid residue 418 (pm418) (Homo sapiens, UniProt Q92731). The data set is described as follows: ER agonist cell assay (ERβ), Huh-7 co-transfection, luciferase. To be noted: for EC50: Huh-7 cells co-transfected with pG5luc and ERβLBD(pm418), overnight incubation, luciferase; for ERβ % of Max E2 Response: percent of the maximum estradiol fold change, Huh-7, pG5luc and ERβLBD(pm418). Type of data set: cell-based.

Some results are limits rather than exact numbers.

The EC50 is the concentration that produces a half-maximal response. As a reminder, the melting point is the temperature, or range, at which the solid turns liquid. `CC(C)COC(=O)C1(c2onc(-c3ccc(O)cc3)c2-c2ccccc2)CC1` [Example 60, 1-[3-(4-Hydroxy-phenyl)-4-phenyl-isoxazol-5-yl]-cyclopropanecarboxylic acid isobutyl ester] displayed a melting point of 109 to 110 °C. Further, in data set [1], a half-maximal response (EC50) required 12.9 nM and the “ERα % of Max E2 Response” value was 23.3%. Also, in data set [2], the EC50 is above 10000 nM and the “ERβ % of Max E2 Response” value is listed as above 3.71%.

Consider `CCC(O)(CC)C1(c2onc(-c3ccc(O)cc3)c2-c2ccccc2)CC1` [Example 50, 4-{5-[1-(1-Ethyl-1-hydroxy-propyl)-cyclopropyl]-4-phenyl-isoxazol-3-yl}-phenol], for which the melting point was in the range of 118 to 119 °C. Moreover, in data set [1], the half-maximal effective concentration (EC50) was 124 nM and the “ERα % of Max E2 Response” value is reported as 80.2%. For the same compound, in data set [2], the “ERβ % of Max E2 Response” value was 1%.

As to `Oc1ccc(-c2noc(C3(C(O)(C4CC4)C4CC4)CC3)c2-c2ccccc2)cc1` [Example 99, 4-{5-(1-(Dicyclopropyl-hydroxy-methyl)-cyclopropyl]-4-phenyl-isoxazol-3-yl}-phenol], the melting point lay within 169 to 170 °C. Moreover, in data set [1], the EC50 was 38.4 nM and the “ERα % of Max E2 Response” value was 45.3%. Also, in data set [2], the “ERβ % of Max E2 Response” value is 0.679%.

In the case of `CC(C)(O)C1(c2onc(-c3ccc(O)cc3)c2-c2ccccc2)CC1` [Example 49, 4-{5-[1-(1-Hydroxy-1-methyl-ethyl)-cyclopropyl]-4-phenyl-isoxazol-3-yl}-phenol], the melting point was 212 to 213 °C. Further, in data set [1], a half-maximal response (EC50) required 159 nM and the “ERα % of Max E2 Response” value is reported as 94.6%. Further, in data set [2], a half-maximal effect (EC50) was put at 23.6 nM and the “ERβ % of Max E2 Response” value came out at 36.7%.

Consider `Oc1ccc(-c2noc(C3(COc4c(F)cccc4OC(F)(F)F)CC3)c2-c2ccccc2)cc1` [Example 5, 4-{5-[1-(2-Fluoro-6-trifluoromethoxy-phenoxymethyl)-cyclopropyl]-4-phenyl-isoxazol-3-yl}-phenol], for which the melting point is 132 to 133 °C. For the same compound, in data set [1], the EC50 came to 45.9 nM and the “ERα % of Max E2 Response” value was found to be 19.3%. Also, in data set [2], the EC50 is above 10000 nM and the “ERβ % of Max E2 Response” value is recorded as above 4.51%.

In turn, `CCOc1ccccc1OCC1(c2onc(-c3ccc(O)cc3)c2-c2ccccc2)CC1` [Example 4, 4-{5-[1-(2-Ethoxy-phenoxymethyl)-cyclopropyl]-4-phenyl-isoxazol-3-yl}-phenol] had a melting point of 148 to 149 °C. In data set [1], the EC50 turned out to be 141 nM and the “ERα % of Max E2 Response” value is given as 14.7%. Further, in data set [2], the concentration giving a half-maximal response (EC50) was above 10000 nM and the “ERβ % of Max E2 Response” value is recorded as above 0.727%.
